Where “and” joins values, the source holds several entries; their conditions need not be identical. Equal values may be shown once. Toxic doses and inconclusive results are not listed. The calls were made as follows: active = survival T/C of 150% or more; inactive = T/C below 125% in these data.
Tested on: BDF1 mice, P388 leukemia ip, median survival T/C
Experiment: NCI In Vivo Anticancer Drug Screen. Data for tumor model P388 Leukemia (intraperitoneal) in B6D2F1 (BDF1) mice
Settings: endpoint: median survival time, higher = longer survival
Outline: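 Reported as T/C, where T is the survival measurement in dosed animals and C the same measurement in vehicle controls.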

[1] = dose: 25.0 mg/kg/injection, schedule: Q04DX003 (ip), vehicle: Klucel (hydroxypropylcellulose) (HPC)
[2] = dose: 50.0 mg/kg/injection, schedule: Q04DX003 (ip), vehicle: Klucel (hydroxypropylcellulose) (HPC)
[3] = dose: 50.0 mg/kg/injection, schedule: Q01DX009 (ip), vehicle: saline with Tween-80
[4] = dose: 100.0 mg/kg/injection, schedule: Q04DX003 (ip), vehicle: Klucel (hydroxypropylcellulose) (HPC)
[5] = dose: 200.0 mg/kg/injection, schedule: Q04DX003 (ip), vehicle: Klucel (hydroxypropylcellulose) (HPC)

Measured: T/C

CCOC(=O)NC(=S)n1ncnc1N
inactive: dose: 8.75 mg/kg/injection, schedule: Q01DX009 (ip), vehicle: saline 95 % of control | dose: 12.5 mg/kg/injection, schedule: Q04DX003 (ip), vehicle: Klucel (hydroxypropylcellulose) (HPC) 110 % of control | dose: 17.5 mg/kg/injection, schedule: Q01DX009 (ip), vehicle: saline 105 % of control | [1] 100 % of control | dose: 35.0 mg/kg/injection, schedule: Q01DX009 (ip), vehicle: saline 90 % of control | [2] 100 % of control

COCCn1c2nc(=O)n(-c3ccccc3)c(=O)c-2nc2ccccc21
inactive: dose: 12.5 mg/kg/injection, schedule: Q01DX009 (ip), vehicle: saline with Tween-80 89 % of control | dose: 25.0 mg/kg/injection, schedule: Q01DX009 (ip), vehicle: saline with Tween-80 114 % of control | [3] 91 % of control

COc1c(C)c2c(c(O)c1C/C=C(\C)CCC(=O)O)C(=O)OC2
inactive: dose: 25.0 mg/kg/injection, schedule: Q01DX010 (ip), vehicle: saline 112 % of control and 100 % of control | dose: 50.0 mg/kg/injection, schedule: Q01DX010 (ip), vehicle: saline 104 % of control and 118 % of control | dose: 100.0 mg/kg/injection, schedule: Q01DX010 (ip), vehicle: saline 116 % of control and 100 % of control | dose: 100.0 mg/kg/injection, schedule: Q04DX002 (ip), vehicle: Klucel (hydroxypropylcellulose) (HPC) 100 % of control | dose: 200.0 mg/kg/injection, schedule: Q01DX010 (ip), vehicle: saline 100 % of control and 118 % of control | dose: 200.0 mg/kg/injection, schedule: Q04DX002 (ip), vehicle: Klucel (hydroxypropylcellulose) (HPC) 100 % of control | dose: 400.0 mg/kg/injection, schedule: Q04DX002 (ip), vehicle: Klucel (hydroxypropylcellulose) (HPC) 116 % of control

CCCCC(CC)COC(=O)CCC(CCC(=O)OCC(CC)CCCC)C(=O)OCC(CC)CCCC (stereo not given)
inactive: dose: 100.0 mg/kg/injection, schedule: Q04DX003 (ip), vehicle: saline with Tween-80 90 % of control | dose: 200.0 mg/kg/injection, schedule: Q04DX003 (ip), vehicle: saline with Tween-80 118 % of control | dose: 400.0 mg/kg/injection, schedule: Q04DX003 (ip), vehicle: saline with Tween-80 95 % of control

c1ccc(N2CCCCCN2c2ccccc2)cc1
inactive: dose: 50.0 mg/kg/injection, schedule: Q01DX001 (ip), vehicle: saline with Tween-80 92 % of control | dose: 100.0 mg/kg/injection, schedule: Q01DX001 (ip), vehicle: saline with Tween-80 90 % of control | dose: 200.0 mg/kg/injection, schedule: Q01DX001 (ip), vehicle: saline with Tween-80 90 % of control

O=C1c2ccccc2CCC12OC2c1ccccc1[N+](=O)[O-] (stereo not given)
inactive: [2] 110 % of control | [4] 100 % of control | [5] 110 % of control

CCCCCCCCCCCCCCOc1ccc(Cc2ccccc2)cc1
inactive: [4] 100 % of control | [5] 90 % of control

C(=C/c1nnc2ncccn12)/c1ccccc1
inactive: [3] 97 % of control | dose: 100.0 mg/kg/injection, schedule: Q01DX009 (ip), vehicle: saline with Tween-80 94 % of control | dose: 200.0 mg/kg/injection, schedule: Q01DX009 (ip), vehicle: saline with Tween-80 110 % of control

O=C1c2ccccc2C(=O)N1c1cc(OCc2ccccc2)cc(OCc2ccccc2)c1
inactive: dose: 0.78 mg/kg/injection, schedule: Q01DX009 (ip), vehicle: water 99 % of control and 103 % of control | dose: 1.56 mg/kg/injection, schedule: Q01DX009 (ip), vehicle: water 96 % of control and 101 % of control | dose: 3.12 mg/kg/injection, schedule: Q01DX009 (ip), vehicle: water 105 % of control and 120 % of control | dose: 6.25 mg/kg/injection, schedule: Q01DX009 (ip), vehicle: water 96 % of control | dose: 12.5 mg/kg/injection, schedule: Q01DX009 (ip), vehicle: water 95 % of control and 99 % of control and 112 % of control | dose: 25.0 mg/kg/injection, schedule: Q01DX009 (ip), vehicle: water 99 % of control and 105 % of control | dose: 50.0 mg/kg/injection, schedule: Q01DX009 (ip), vehicle: water 89 % of control and 117 % of control | dose: 50.0 mg/kg/injection, schedule: Q04DX003 (ip), vehicle: water 94 % of control | dose: 100.0 mg/kg/injection, schedule: Q01DX009 (ip), vehicle: water 96 % of control | dose: 100.0 mg/kg/injection, schedule: Q04DX003 (ip), vehicle: water 99 % of control | dose: 200.0 mg/kg/injection, schedule: Q01DX009 (ip), vehicle: water 88 % of control and 115 % of control | dose: 200.0 mg/kg/injection, schedule: Q04DX003 (ip), vehicle: water 90 % of control | dose: 400.0 mg/kg/injection, schedule: Q01DX009 (ip), vehicle: water 101 % of control | dose: 400.0 mg/kg/injection, schedule: Q04DX003 (ip), vehicle: water 99 % of control

C1CCN(CC2CCCCN2)CC1 (stereo not given)
inactive: dose: 25.0 mg/kg/injection, schedule: Q01DX009 (ip), vehicle: Klucel (hydroxypropylcellulose) (HPC) 100 % of control | [1] 105 % of control | dose: 50.0 mg/kg/injection, schedule: Q01DX009 (ip), vehicle: Klucel (hydroxypropylcellulose) (HPC) 100 % of control | [2] 100 % of control | dose: 100.0 mg/kg/injection, schedule: Q01DX009 (ip), vehicle: Klucel (hydroxypropylcellulose) (HPC) 90 % of control | [4] 110 % of control
